Data on 60 compounds can be found in ChEMBL document CHEMBL1139538, “ERbeta ligands. 3. Exploiting two binding orientations of the 2-phenylnaphthalene scaffold to achieve ERbeta selectivity” (J Med Chem, 2005).

Each structure is given as a SMILES string. A value given as a limit tells only on which side of the number the result lay.

One test concerns the target Estrogen receptor beta (Homo sapiens, UniProt Q92731).
For another test, the target named is T1, Estrogen receptor (Homo sapiens, UniProt P03372).
T1 sequence (P03372 whole entry): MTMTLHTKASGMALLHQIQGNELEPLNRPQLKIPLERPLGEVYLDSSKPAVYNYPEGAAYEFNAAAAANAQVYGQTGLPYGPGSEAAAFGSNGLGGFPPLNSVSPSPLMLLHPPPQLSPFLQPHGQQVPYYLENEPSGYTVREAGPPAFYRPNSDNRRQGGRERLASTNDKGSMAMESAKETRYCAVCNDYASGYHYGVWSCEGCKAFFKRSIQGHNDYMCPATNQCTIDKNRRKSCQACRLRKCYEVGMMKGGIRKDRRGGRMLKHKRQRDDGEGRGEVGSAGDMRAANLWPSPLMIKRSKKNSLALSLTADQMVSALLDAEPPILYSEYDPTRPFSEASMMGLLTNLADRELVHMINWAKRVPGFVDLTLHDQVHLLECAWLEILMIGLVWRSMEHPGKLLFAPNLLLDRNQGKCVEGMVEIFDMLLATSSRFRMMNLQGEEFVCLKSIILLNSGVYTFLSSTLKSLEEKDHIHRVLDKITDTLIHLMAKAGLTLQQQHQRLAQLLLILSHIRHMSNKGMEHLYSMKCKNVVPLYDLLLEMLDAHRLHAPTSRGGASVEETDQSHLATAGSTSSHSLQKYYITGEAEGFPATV

The test system of test [1] is Rattus norvegicus. The experiment in a line: Effect of oral administration of 1 mg/kg compound on colon histology (haemoglobin) in HLA-B27 transgenic rats. The format is functional.
For test [2], the target named is T2, Estrogen receptor (Rattus norvegicus) (UniProt P06211+Q62986).
Description: Effect on uterine weight in immature rats in combination with 17R-ethinyl-17-beta-estradiol after 3 days
The subject of test [3] is Rattus norvegicus. Put plainly: Effect of oral administration of 10 mg/kg compound on colon histology (haemoglobin) in HLA-B27 transgenic rats. The format is functional.
Test [4] concerns the target T2, Estrogen receptor (Rattus norvegicus). This is another data set of the same source.
Description: Effect on uterine weight of immature rats at 2 mg/rat/day dose after 3 days

Estrogen receptor beta, sequence (Q92731 whole entry): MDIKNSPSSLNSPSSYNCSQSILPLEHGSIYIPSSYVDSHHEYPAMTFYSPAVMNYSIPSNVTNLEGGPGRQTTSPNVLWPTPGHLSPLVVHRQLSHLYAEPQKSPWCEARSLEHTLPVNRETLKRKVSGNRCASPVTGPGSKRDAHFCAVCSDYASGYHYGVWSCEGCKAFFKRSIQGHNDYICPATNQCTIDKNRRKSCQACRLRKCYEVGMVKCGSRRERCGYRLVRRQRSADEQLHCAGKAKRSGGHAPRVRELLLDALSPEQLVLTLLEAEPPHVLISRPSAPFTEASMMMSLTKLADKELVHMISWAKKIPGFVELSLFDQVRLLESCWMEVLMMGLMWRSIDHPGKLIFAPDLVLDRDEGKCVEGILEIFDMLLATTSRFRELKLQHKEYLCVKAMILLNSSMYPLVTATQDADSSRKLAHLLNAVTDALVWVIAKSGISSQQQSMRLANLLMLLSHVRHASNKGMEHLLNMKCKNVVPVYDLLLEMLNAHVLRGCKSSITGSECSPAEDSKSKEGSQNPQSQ

Regarding `N#Cc1cc(-c2ccc(O)c(F)c2)cc2ccc(O)c(F)c12`, the values for the IC50 on Estrogen receptor beta and on Estrogen receptor were 5.6 nM and 312 nM, respectively.
Turning to `COc1cc(O)ccc1-c1ccc2cc(O)ccc2c1`, inhibition against Estrogen receptor was half-maximal at 174 nM (IC50). This lies in the sub-micromolar range.
Regarding `Oc1ccc2cc(-c3ccc(O)c(Cl)c3)ccc2c1`, the values for the IC50 on Estrogen receptor beta and against Estrogen receptor were 11 nM and 107 nM, respectively.
The like results for `Oc1cc(F)c(-c2ccc3c(Cl)c(O)ccc3c2)c(F)c1` were, in that order, 3.4 nM and 35 nM.
Turning to `CCc1cc(O)cc2ccc(-c3ccc(O)c(F)c3)cc12`, the values for the IC50 at Estrogen receptor beta and on Estrogen receptor were 2.5 nM and 113 nM, respectively.
`Cc1cc(O)ccc1-c1ccc2c(Cl)c(O)ccc2c1` showed an IC50 at Estrogen receptor of 40 nM. In other words, the double-digit nanomolar range.
Regarding `Cc1cc(O)ccc1-c1ccc2cc(O)ccc2c1`, the IC50 at Estrogen receptor beta amounted to 10 nM; at Estrogen receptor, 40 nM.
The like results for `N#Cc1cc(O)cc2ccc(-c3ccc(O)cc3)cc12` were, in that order, 2 nM and 84 nM.
Consider `Oc1ccc2cc(-c3cc(F)c(O)cc3F)ccc2c1`, for which the IC50 is 2.8 nM against Estrogen receptor beta and 27 nM against Estrogen receptor.
For the compound `Oc1ccc(-c2ccc3c(Cl)c(O)ccc3c2)cc1F`, at Estrogen receptor beta, 4 nM corresponded to half-maximal inhibition (IC50).
As for `C#Cc1cc(-c2ccc(O)c(F)c2)cc2ccc(O)cc12`, the IC50 against Estrogen receptor beta is 6.3 nM; on Estrogen receptor, 247 nM.
The like results for `CC#Cc1cc(-c2ccc(O)c(F)c2)cc2ccc(O)cc12` were, in that order, 10 nM and 343 nM.
Compound `Oc1ccc2cc(-c3cc(F)c(O)c(F)c3)ccc2c1Cl` showed an IC50 on Estrogen receptor beta of 10.6 nM.
In the case of `C#Cc1cc(O)cc2ccc(-c3ccc(O)c(F)c3)cc12`, the figures for the half-inhibitory concentration (IC50) on Estrogen receptor beta and against Estrogen receptor were 1.2 nM and 73 nM, respectively.
Take `N#Cc1cc(-c2ccc(O)cc2)cc2ccc(O)c(Cl)c12`: the IC50 against Estrogen receptor beta worked out at 6 nM; on Estrogen receptor, 109 nM.
The matching figures for `N#Cc1cc(-c2ccc(O)cc2F)cc2ccc(O)cc12`: 0.5 nM and 26 nM.
`Oc1ccc(-c2ccc3c(F)c(O)ccc3c2)cc1`: the IC50 turned out to be 7 nM against Estrogen receptor beta and 77 nM against Estrogen receptor.
With `Oc1cccc(-c2ccc3ccc(O)cc3c2)c1`, the results for the IC50 on Estrogen receptor beta and against Estrogen receptor were 566 nM and 2640 nM, respectively.
`Oc1ccc(-c2ccc3cc(O)ccc3c2)c(Cl)c1`: the IC50 at Estrogen receptor beta was 1.4 nM.
Still for that read-out and setting: to `Oc1cccc(-c2ccc3cc(O)ccc3c2)c1` belongs 30 nM.
Regarding `N#Cc1cc(-c2ccc(O)c(F)c2)cc2ccc(O)cc12`, the Activity in the test with Rattus norvegicus [1] was found to be 0.45 mg/mL; in the test with Rattus norvegicus [3], 0.35 mg/mL. The figures for the Weight in test [2] and in test [4] were 81.9 mg and 23.3 mg, respectively.
For `Oc1ccc(-c2cc(F)c3cc(O)ccc3c2)cc1`, the IC50 on Estrogen receptor beta was 1.6 nM; on Estrogen receptor, 22 nM.
The matching figures for `Oc1ccc(-c2ccc3c(-c4ccccc4)c(O)ccc3c2)cc1`: 748 nM and 1230 nM.
The matching figures for `O=[N+]([O-])c1c(O)ccc2cc(-c3ccc(O)cc3)ccc12`: 199 nM and 709 nM.
The matching figures for `CCc1cc(-c2ccc(O)c(F)c2)cc2ccc(O)cc12`: 2.4 nM and 235 nM.
As for `N#Cc1cc(-c2cc(F)c(O)cc2F)cc2ccc(O)cc12`, the IC50 worked out at 6.9 nM at Estrogen receptor beta and 186 nM against Estrogen receptor.
Turning to `N#Cc1cc(O)c(Cl)c2ccc(-c3ccc(O)cc3)cc12`, the IC50 against Estrogen receptor beta came to 3 nM; against Estrogen receptor it was 98 nM.
As for `Oc1ccc2cc(-c3ccc(O)c(F)c3)ccc2c1`, the half-maximal inhibitory concentration (IC50) against Estrogen receptor beta turned out to be 5 nM. This lies in the single-digit nanomolar range.
With `Oc1ccc2ccc(-c3ccccc3)cc2c1`, the IC50 against Estrogen receptor is 3400 nM.
As for `Oc1ccc(-c2ccc3c(Br)c(O)ccc3c2)cc1`, the IC50 was determined as 13 nM on Estrogen receptor beta and 266 nM on Estrogen receptor.
The matching figures for `C=Cc1cc(-c2ccc(O)c(F)c2)cc2ccc(O)cc12`: 4.4 nM and 254 nM.
For `Oc1ccc(-c2ccc3c(Cl)c(O)ccc3c2)c(F)c1`, the IC50 turned out to be 1.2 nM against Estrogen receptor beta and 58 nM at Estrogen receptor.
The matching figures for `N#Cc1cc(O)c(Br)c2ccc(-c3ccc(O)c(F)c3)cc12`: 4.5 nM and 116 nM.
The matching figures for `Oc1cc(F)c(-c2ccc3c(Cl)c(O)ccc3c2)cc1F`: 8.5 nM and 118 nM.
The like results for `Oc1ccc2cc(-c3ccccc3)ccc2c1` were, in that order, 374 nM and 1340 nM.
On to `Cc1c(O)cc(C#N)c2cc(-c3ccc(O)c(F)c3)ccc12`, for which the 50% inhibitory concentration (IC50) against Estrogen receptor beta was found to be 6 nM; at Estrogen receptor it was 406 nM.
The like results for `O=Cc1cc(-c2ccc(O)c(F)c2)cc2ccc(O)cc12` were, in that order, 3.4 nM and 231 nM.
The matching figures for `CC#Cc1cc(O)cc2ccc(-c3ccc(O)c(F)c3)cc12`: 5.5 nM and 180 nM.
Consider `N#Cc1cc(O)c(Cl)c2ccc(-c3ccc(O)c(F)c3)cc12`, for which the IC50 against Estrogen receptor beta is 2.6 nM; against Estrogen receptor, 55 nM.
The like results for `C=Cc1cc(O)cc2ccc(-c3ccc(O)c(F)c3)cc12` were, in that order, 7.3 nM and 527 nM.
The like results for `N#Cc1cc(O)c(C#N)c2ccc(-c3ccc(O)c(F)c3)cc12` were, in that order, 28 nM and 877 nM.
The like results for `N#Cc1cc(-c2ccc(O)cc2)cc2ccc(O)c(Br)c12` were, in that order, 12 nM and 131 nM.
Regarding `Oc1ccc(-c2ccc3ccc(O)cc3c2)cc1`, the results for the IC50 against Estrogen receptor beta and at Estrogen receptor were 44 nM and 442 nM, respectively.
The matching figures for `Oc1ccc(-c2cc(Cl)c3cc(O)ccc3c2)cc1`: 2.3 nM and 30 nM.
The like results for `Oc1ccc(-c2cc(Cl)c3c(Cl)c(O)ccc3c2)cc1` were, in that order, 9 nM and 43 nM.
The matching figures for `Oc1ccc2cc(-c3ccccc3O)ccc2c1`: 2000 nM and over 5000 nM.
Turning to `N#Cc1cc(O)cc2ccc(-c3ccc(O)c(F)c3)cc12`, the IC50 at Estrogen receptor beta amounted to 2.1 nM; against Estrogen receptor, 96 nM.
In the case of `Oc1ccc(-c2cc(F)c3c(Cl)c(O)ccc3c2)cc1`, the IC50 at Estrogen receptor beta was 1.1 nM; at Estrogen receptor, 40 nM.
The matching figures for `Oc1cc(F)c(-c2ccc3cc(O)ccc3c2)c(F)c1`: 2.3 nM and 10.3 nM.
Consider `N#Cc1cc(-c2c(F)cc(O)cc2F)cc2ccc(O)cc12`, for which the IC50 at Estrogen receptor beta worked out at 2.2 nM; at Estrogen receptor, 45 nM.
The like results for `O=Cc1cc(O)cc2ccc(-c3ccc(O)c(F)c3)cc12` were, in that order, 1.1 nM and 73 nM.
As for `Oc1ccc(-c2ccc3c(Cl)c(O)ccc3c2)cc1`, on Estrogen receptor, 91 nM corresponded to half-maximal inhibition (IC50).
`Oc1ccc2cc(-c3cc(F)c(O)c(F)c3)ccc2c1` showed an IC50 on Estrogen receptor beta of 8.4 nM.
Consider `Oc1ccc2cc(-c3ccc(O)c(F)c3)cc(F)c2c1`, for which the IC50 is 1.5 nM against Estrogen receptor beta and 21 nM on Estrogen receptor.
Take `Oc1ccc(-c2ccc3c(Cl)c(O)ccc3c2)c(Cl)c1`: the values for the IC50 on Estrogen receptor beta and against Estrogen receptor were 3.3 nM and 36 nM, respectively.
On Estrogen receptor beta, `Oc1ccc(-c2ccc3c(O)cccc3c2)cc1` registered an IC50 of 5.8 nM. This lies in the single-digit nanomolar range.
For `Oc1ccc(-c2ccc3cc(O)ccc3c2)c(F)c1`, the IC50 on Estrogen receptor beta worked out at 2 nM; against Estrogen receptor, 24 nM.
The like results for `Oc1ccc(-c2ccc3cc(O)ccc3c2)cc1` were, in that order, 16.3 nM and 211 nM.
The like results for `Oc1cccc(-c2ccc3c(O)cccc3c2)c1` were, in that order, 205 nM and 1450 nM.
For the compound `Oc1ccc(-c2ccc3ccccc3c2)cc1`, it took 638 nM to reach half-maximal inhibition against Estrogen receptor (IC50). That is a sub-micromolar value.

As usually defined, the IC50 is the concentration needed to halve the response being measured.
